Experimental data from the supplement of paper PMC10307832.

Tests used:
Assay in all cases: relative viability (nuclei count vs DMSO), 5 days (fraction); higher = more cells survive
A-427 = system: A-427
How it was run: (§1)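 One day after seeding in 1536-well plates, lung cancer cell lines were dosed by pin tool. Dosing was either single-drug or a fixed anchor-drug dose plus five library-drug doses (not always all listed) in √10 steps. After 5 days, nuclei were stained in one fix-and-stain step and counted on 4× images, and relative viability is the nuclei count of treated wells over that of vehicle wells, given as the median of duplicate plates.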

NCI-H2228 = system: NCI-H2228
How it was run: as §1

201T = system: 201T
How it was run: as §1

NCI-H596 = system: NCI-H596
How it was run: as §1

H3255 = system: H3255
How it was run: as §1

NCI-H23 = system: NCI-H23
How it was run: as §1

SW 1573 = system: SW 1573
How it was run: as §1

HCC-44 = system: HCC-44
How it was run: as §1

NCI-H460 = system: NCI-H460
How it was run: as §1

LU99A = system: LU99A
How it was run: as §1

LK-2 = system: LK-2
How it was run: as §1

LC-2-ad = system: LC-2-ad
How it was run: as §1

NCI-H727 = system: NCI-H727
How it was run: as §1

NCI-H1650 = system: NCI-H1650
How it was run: as §1

PC-14 = system: PC-14
How it was run: as §1

LCLC-97TM1 = system: LCLC-97TM1
How it was run: as §1

COR-L23 = system: COR-L23
How it was run: as §1

LCLC-103H = system: LCLC-103H
How it was run: as §1

NCI-H1793 = system: NCI-H1793
How it was run: as §1

NCI-H2347 = system: NCI-H2347
How it was run: as §1

SW 900 = system: SW 900
How it was run: as §1

Nc1ccn([C@@H]2O[C@H](CO)[C@@H](O)[C@@H]2O)c(=O)n1 [Cytarabine] + O=C(CCCCCCC(=O)Nc1ccccc1)NO [Vorinostat] (partner 1 µM)
relative viability (A-427; first compound 0.005 µM): 0.758
relative viability (A-427; first compound 0.01581 µM): 0.636
relative viability (A-427; first compound 0.05 µM): 0.325
relative viability (A-427; first compound 0.1581 µM): 0.339
relative viability (A-427; first compound 0.5 µM): 0.306
relative viability (NCI-H2228; first compound 0.005 µM): 0.472
relative viability (NCI-H2228; first compound 0.01581 µM): 0.275
relative viability (NCI-H2228; first compound 0.05 µM): 0.197
relative viability (NCI-H2228; first compound 0.1581 µM): 0.106
relative viability (NCI-H2228; first compound 0.5 µM): 0.0947
relative viability (201T; first compound 0.005 µM): 0.978
relative viability (201T; first compound 0.01581 µM): 1.03
relative viability (201T; first compound 0.05 µM): 1
relative viability (201T; first compound 0.1581 µM): 0.994
relative viability (201T; first compound 0.5 µM): 0.937
relative viability (NCI-H596; first compound 0.005 µM): 0.545
relative viability (NCI-H596; first compound 0.01581 µM): 0.553
relative viability (NCI-H596; first compound 0.05 µM): 0.502
relative viability (NCI-H596; first compound 0.1581 µM): 0.431
relative viability (NCI-H596; first compound 0.5 µM): 0.272
relative viability (H3255; first compound 0.005 µM): 0.862
relative viability (H3255; first compound 0.01581 µM): 0.853
relative viability (H3255; first compound 0.05 µM): 0.655
relative viability (H3255; first compound 0.1581 µM): 0.608
relative viability (H3255; first compound 0.5 µM): 0.878
relative viability (NCI-H23; first compound 0.005 µM): 0.65
relative viability (NCI-H23; first compound 0.01581 µM): 0.511
relative viability (NCI-H23; first compound 0.05 µM): 0.306
relative viability (NCI-H23; first compound 0.1581 µM): 0.156
relative viability (NCI-H23; first compound 0.5 µM): 0.122
relative viability (SW 1573; first compound 0.005 µM): 0.606
relative viability (SW 1573; first compound 0.01581 µM): 0.552
relative viability (SW 1573; first compound 0.05 µM): 0.677
relative viability (SW 1573; first compound 0.1581 µM): 0.225
relative viability (SW 1573; first compound 0.5 µM): 0.15
relative viability (HCC-44; first compound 0.005 µM): 1.2
relative viability (HCC-44; first compound 0.01581 µM): 1.09
relative viability (HCC-44; first compound 0.05 µM): 1.08
relative viability (HCC-44; first compound 0.1581 µM): 0.973
relative viability (HCC-44; first compound 0.5 µM): 0.948
relative viability (NCI-H460; first compound 0.005 µM): 0.422
relative viability (NCI-H460; first compound 0.01581 µM): 0.436
relative viability (NCI-H460; first compound 0.05 µM): 0.259
relative viability (NCI-H460; first compound 0.1581 µM): 0.0538
relative viability (NCI-H460; first compound 0.5 µM): 0.0412
relative viability (LU99A; first compound 0.005 µM): 0.451
relative viability (LU99A; first compound 0.01581 µM): 0.468
relative viability (LU99A; first compound 0.05 µM): 0.554
relative viability (LU99A; first compound 0.1581 µM): 0.455
relative viability (LU99A; first compound 0.5 µM): 0.375
relative viability (LK-2; first compound 0.005 µM): 0.244
relative viability (LK-2; first compound 0.01581 µM): 0.29
relative viability (LK-2; first compound 0.05 µM): 0.242
relative viability (LK-2; first compound 0.1581 µM): 0.143
relative viability (LK-2; first compound 0.5 µM): 0.119
relative viability (LC-2-ad; first compound 0.005 µM): 0.766
relative viability (LC-2-ad; first compound 0.01581 µM): 0.691
relative viability (LC-2-ad; first compound 0.05 µM): 0.67
relative viability (LC-2-ad; first compound 0.1581 µM): 0.646
relative viability (LC-2-ad; first compound 0.5 µM): 0.436
relative viability (NCI-H727; first compound 0.005 µM): 1.22
relative viability (NCI-H727; first compound 0.01581 µM): 1.16
relative viability (NCI-H727; first compound 0.05 µM): 0.566
relative viability (NCI-H727; first compound 0.1581 µM): 0.552
relative viability (NCI-H727; first compound 0.5 µM): 0.524
relative viability (NCI-H1650; first compound 0.005 µM): 0.563
relative viability (NCI-H1650; first compound 0.01581 µM): 0.514
relative viability (NCI-H1650; first compound 0.05 µM): 0.261
relative viability (NCI-H1650; first compound 0.1581 µM): 0.241
relative viability (NCI-H1650; first compound 0.5 µM): 0.226
relative viability (PC-14; first compound 0.005 µM): 0.519
relative viability (PC-14; first compound 0.01581 µM): 0.601
relative viability (PC-14; first compound 0.05 µM): 0.617
relative viability (PC-14; first compound 0.1581 µM): 0.154
relative viability (PC-14; first compound 0.5 µM): 0.082
relative viability (LCLC-97TM1; first compound 0.005 µM): 0.752
relative viability (LCLC-97TM1; first compound 0.01581 µM): 0.562
relative viability (LCLC-97TM1; first compound 0.05 µM): 0.166
relative viability (LCLC-97TM1; first compound 0.1581 µM): 0.275
relative viability (LCLC-97TM1; first compound 0.5 µM): 0.102
relative viability (COR-L23; first compound 0.005 µM): 0.376
relative viability (COR-L23; first compound 0.01581 µM): 0.404
relative viability (COR-L23; first compound 0.05 µM): 0.304
relative viability (COR-L23; first compound 0.1581 µM): 0.136
relative viability (LCLC-103H; first compound 0.005 µM): 0.806
relative viability (LCLC-103H; first compound 0.01581 µM): 0.861
relative viability (LCLC-103H; first compound 0.05 µM): 0.758
relative viability (LCLC-103H; first compound 0.1581 µM): 0.745
relative viability (LCLC-103H; first compound 0.5 µM): 0.692
relative viability (NCI-H1793; first compound 0.005 µM): 0.631
relative viability (NCI-H1793; first compound 0.01581 µM): 0.607
relative viability (NCI-H1793; first compound 0.05 µM): 0.643
relative viability (NCI-H1793; first compound 0.1581 µM): 0.352
relative viability (NCI-H1793; first compound 0.5 µM): 0.186
relative viability (NCI-H2347; first compound 0.005 µM): 0.531
relative viability (NCI-H2347; first compound 0.01581 µM): 0.586
relative viability (NCI-H2347; first compound 0.05 µM): 0.555
relative viability (NCI-H2347; first compound 0.1581 µM): 0.498
relative viability (NCI-H2347; first compound 0.5 µM): 0.409
relative viability (SW 900; first compound 0.005 µM): 0.399
relative viability (SW 900; first compound 0.01581 µM): 0.491
relative viability (SW 900; first compound 0.05 µM): 0.376
relative viability (SW 900; first compound 0.1581 µM): 0.182
relative viability (SW 900; first compound 0.5 µM): 0.166
